Data taken from patent US20100016547A1, “Glycosilated Peptide and Medicine Comprising It as an Effective Ingredient” (priority 2005, published 2010).

Tests used:
GLP-1 receptor [1] = target: T1, GLP-1 receptor (Homo sapiens, UniProt P43220)
Procedure: After being incubated at room temperature for 2 hours, the solution was filtered through a unifilter 96GF/C plate (Perkin-Elmer) pretreated with 1% polyethylenimine containing 0.5% BSA, washed with 25 mM HEPES buffer solution (pH 7.4) containing 0.5% BSA, and radioactivity remained on the filter was measured by a gamma counter (Top Counter; Perkin-Elmer).

GLP-1 receptor [2] = target: T1, GLP-1 receptor; experiment: Assay for production of cAMP
Procedure: Assay for Production of cAMP
After stirring at room temperature for an hour, the cells were lysed with Triton X-100 (final concentration: 1%).
Quantity of cAMP was determined using cAMP Femtomolar Kit (CIS Bio International). The reaction solution (1 μL) was moved to a new 384-well plate and diluted by adding 9 μL of dilution buffer. Next, each 5 μL of cAMP-XL665 solution and anti-cAMP cryptate solution of the Kit was added, the mixture was incubated at room temperature for an hour, and time-resolved fluorescence was measured using RUBYstar (BMG LABTECH).

T1 sequence (P43220 24-463, species assumed): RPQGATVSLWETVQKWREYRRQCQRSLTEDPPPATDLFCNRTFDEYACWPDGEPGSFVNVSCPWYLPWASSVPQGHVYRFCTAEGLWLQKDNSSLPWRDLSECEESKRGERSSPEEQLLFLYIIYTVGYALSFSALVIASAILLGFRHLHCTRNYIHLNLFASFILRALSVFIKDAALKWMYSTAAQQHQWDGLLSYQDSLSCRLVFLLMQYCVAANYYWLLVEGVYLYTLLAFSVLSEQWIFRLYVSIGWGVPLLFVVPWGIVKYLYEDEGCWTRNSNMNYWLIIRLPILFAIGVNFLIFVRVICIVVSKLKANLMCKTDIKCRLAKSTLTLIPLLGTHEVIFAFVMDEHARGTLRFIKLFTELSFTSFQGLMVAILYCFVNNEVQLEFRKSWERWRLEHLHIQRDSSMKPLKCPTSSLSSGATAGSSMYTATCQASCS

Structure (SMILES)	IC50 (GLP-1 receptor [1]) [nM]	EC50 (GLP-1 receptor [2]) [nM]
CC[C@H](C)[C@H](NC(=O)[C@H](Cc1ccccc1)NC(=O)[C@H](CCC(=O)O)NC(=O)[C@H](CC(=O)N[C@@H]1O[C@H](CO)[C@@H](O[C@@H]2O[C@H](CO)[C@@H](O[C@@H]3O[C@H](CO[C@H]4O[C@H](CO)[C@@H](O)[C@H](O)[C@@H]4O[C@@H]4O[C@H](CO)[C@@H](O[C@@H]5O[C@H](CO[C@]6(C(=O)O)C[C@H](O)[C@@H](NC(C)=O)[C@H]([C@H](O)[C@H](O)CO)O6)[C@H](O)[C@H](O)[C@H]5O)[C@H](O)[C@H]4NC(C)=O)[C@@H](O)[C@H](O[C@H]4O[C@H](CO)[C@@H](O)[C@H](O)[C@@H]4O[C@@H]4O[C@H](CO)[C@@H](O[C@@H]5O[C@H](CO[C@]6(C(=O)O)C[C@H](O)[C@@H](NC(C)=O)[C@H]([C@H](O)[C@H](O)CO)O6)[C@H](O)[C@H](O)[C@H]5O)[C@H](O)[C@H]4NC(C)=O)[C@@H]3O)[C@H](O)[C@H]2NC(C)=O)[C@H](O)[C@H]1NC(C)=O)NC(=O)[C@H](C)NC(=O)[C@H](C)NC(=O)[C@H](CCC(N)=O)NC(=O)CNC(=O)[C@H](CCC(=O)O)NC(=O)[C@H](CC(C)C)NC(=O)[C@H](Cc1ccc(O)cc1)NC(=O)[C@H](CO)NC(=O)[C@H](CO)NC(=O)[C@@H](NC(=O)[C@H](CC(=O)O)NC(=O)[C@H](CO)NC(=O)[C@@H](NC(=O)[C@H](Cc1ccccc1)NC(=O)[C@@H](NC(=O)CNC(=O)[C@H](CCC(=O)O)NC(=O)[C@H](C)NC(=O)[C@@H](N)Cc1c[nH]cn1)[C@@H](C)O)[C@@H](C)O)C(C)C)C(=O)N[C@@H](C)C(=O)N[C@@H](Cc1c[nH]c2ccccc12)C(=O)N[C@@H](CC(C)C)C(=O)N[C@H](C(=O)N[C@@H](CCCCN)C(=O)NCC(=O)N[C@@H](CCCNC(=N)N)C(N)=O)C(C)C [GL26NE1]	11	0.8
CC[C@H](C)[C@H](NC(=O)[C@H](Cc1ccccc1)NC(=O)[C@H](CCC(=O)O)NC(=O)[C@H](CC(=O)N[C@@H]1O[C@H](CO)[C@@H](O[C@@H]2O[C@H](CO)[C@H](O)[C@H](O)[C@H]2O)[C@H](O)[C@H]1NC(C)=O)NC(=O)[C@H](C)NC(=O)[C@H](C)NC(=O)[C@H](CCC(N)=O)NC(=O)CNC(=O)[C@H](CCC(=O)O)NC(=O)[C@H](CC(C)C)NC(=O)[C@H](Cc1ccc(O)cc1)NC(=O)[C@H](CO)NC(=O)[C@H](CO)NC(=O)[C@@H](NC(=O)[C@H](CC(=O)O)NC(=O)[C@H](CO)NC(=O)[C@@H](NC(=O)[C@H](Cc1ccccc1)NC(=O)[C@@H](NC(=O)CNC(=O)[C@H](CCC(=O)O)NC(=O)[C@H](C)NC(=O)[C@@H](N)Cc1c[nH]cn1)[C@@H](C)O)[C@@H](C)O)C(C)C)C(=O)N[C@@H](C)C(=O)N[C@@H](Cc1c[nH]c2ccccc12)C(=O)N[C@@H](CC(C)C)C(=O)N[C@H](C(=O)N[C@@H](CCCCN)C(=O)NCC(=O)N[C@@H](CCCNC(=N)N)C(N)=O)C(C)C [GL26NL]	2	0.33
CC[C@H](C)[C@H](NC(=O)[C@H](Cc1ccccc1)NC(=O)[C@H](CCC(=O)O)NC(=O)[C@H](CC(=O)N[C@@H]1O[C@H](CO)[C@@H](O[C@@H]2O[C@H](CO[C@]3(C(=O)O)C[C@H](O)[C@@H](NC(C)=O)[C@H]([C@H](O)[C@H](O)CO)O3)[C@H](O)[C@H](O)[C@H]2O)[C@H](O)[C@H]1NC(C)=O)NC(=O)[C@H](C)NC(=O)[C@H](C)NC(=O)[C@H](CCC(N)=O)NC(=O)CNC(=O)[C@H](CCC(=O)O)NC(=O)[C@H](CC(C)C)NC(=O)[C@H](Cc1ccc(O)cc1)NC(=O)[C@H](CO)NC(=O)[C@H](CO)NC(=O)[C@@H](NC(=O)[C@H](CC(=O)O)NC(=O)[C@H](CO)NC(=O)[C@@H](NC(=O)[C@H](Cc1ccccc1)NC(=O)[C@@H](NC(=O)CNC(=O)[C@H](CCC(=O)O)NC(=O)[C@H](C)NC(=O)[C@@H](N)Cc1c[nH]cn1)[C@@H](C)O)[C@@H](C)O)C(C)C)C(=O)N[C@@H](C)C(=O)N[C@@H](Cc1c[nH]c2ccccc12)C(=O)N[C@@H](CC(C)C)C(=O)N[C@H](C(=O)N[C@@H](CCCCN)C(=O)NCC(=O)N[C@@H](CCCNC(=N)N)C(N)=O)C(C)C [GL26NS6]	2.9	0.92
CC[C@H](C)[C@H](NC(=O)[C@H](Cc1ccccc1)NC(=O)[C@H](CCC(=O)O)NC(=O)[C@H](CCCCN)NC(=O)[C@H](C)NC(=O)[C@H](C)NC(=O)[C@H](CCC(N)=O)NC(=O)CNC(=O)[C@H](CCC(=O)O)NC(=O)[C@H](CC(C)C)NC(=O)[C@H](Cc1ccc(O)cc1)NC(=O)[C@H](CO)NC(=O)[C@H](CO)NC(=O)[C@@H](NC(=O)[C@H](CC(=O)O)NC(=O)[C@H](CO)NC(=O)[C@@H](NC(=O)[C@H](Cc1ccccc1)NC(=O)[C@@H](NC(=O)CNC(=O)[C@H](CCC(=O)O)NC(=O)[C@H](C)NC(=O)[C@@H](N)Cc1c[nH]cn1)[C@@H](C)O)[C@@H](C)O)C(C)C)C(=O)N[C@@H](C)C(=O)N[C@@H](Cc1c[nH]c2ccccc12)C(=O)N[C@@H](CC(C)C)C(=O)N[C@H](C(=O)N[C@@H](CSCC(=O)N[C@@H](CC(=O)N[C@@H]1O[C@H](CO)[C@@H](O[C@@H]2O[C@H](CO)[C@@H](O[C@@H]3O[C@H](CO[C@H]4O[C@H](CO)[C@@H](O)[C@H](O)[C@@H]4O[C@@H]4O[C@H](CO)[C@@H](O[C@@H]5O[C@H](CO[C@]6(C(=O)O)C[C@H](O)[C@@H](NC(C)=O)[C@H]([C@H](O)[C@H](O)CO)O6)[C@H](O)[C@H](O)[C@H]5O)[C@H](O)[C@H]4NC(C)=O)[C@@H](O)[C@H](O[C@H]4O[C@H](CO)[C@@H](O)[C@H](O)[C@@H]4O[C@@H]4O[C@H](CO)[C@@H](O[C@@H]5O[C@H](CO[C@]6(C(=O)O)C[C@H](O)[C@@H](NC(C)=O)[C@H]([C@H](O)[C@H](O)CO)O6)[C@H](O)[C@H](O)[C@H]5O)[C@H](O)[C@H]4NC(C)=O)[C@@H]3O)[C@H](O)[C@H]2NC(C)=O)[C@H](O)[C@H]1NC(C)=O)C(=O)O)C(=O)NCC(=O)N[C@@H](CCCNC(=N)N)C(N)=O)C(C)C [GL34CE1]	3.5	0.72
CC[C@H](C)[C@H](NC(=O)[C@H](Cc1ccccc1)NC(=O)[C@H](CCC(=O)O)NC(=O)[C@H](CCCCN)NC(=O)[C@H](C)NC(=O)[C@H](C)NC(=O)[C@H](CCC(N)=O)NC(=O)CNC(=O)[C@H](CCC(=O)O)NC(=O)[C@H](CC(C)C)NC(=O)[C@H](Cc1ccc(O)cc1)NC(=O)[C@H](CO)NC(=O)[C@H](CO)NC(=O)[C@@H](NC(=O)[C@H](CC(=O)O)NC(=O)[C@H](CO)NC(=O)[C@@H](NC(=O)[C@H](Cc1ccccc1)NC(=O)[C@@H](NC(=O)CNC(=O)[C@H](CCC(=O)O)NC(=O)[C@H](C)NC(=O)[C@@H](N)Cc1c[nH]cn1)[C@@H](C)O)[C@@H](C)O)C(C)C)C(=O)N[C@@H](C)C(=O)N[C@@H](Cc1c[nH]c2ccccc12)C(=O)N[C@@H](CC(C)C)C(=O)N[C@H](C(=O)N[C@@H](CSCC(=O)N[C@@H](CCC(=O)N[C@@H](CC(=O)N[C@@H]1O[C@H](CO)[C@@H](O[C@@H]2O[C@H](CO)[C@@H](O[C@@H]3O[C@H](CO[C@H]4O[C@H](CO)[C@@H](O)[C@H](O)[C@@H]4O[C@@H]4O[C@H](CO)[C@@H](O[C@@H]5O[C@H](CO[C@]6(C(=O)O)C[C@H](O)[C@@H](NC(C)=O)[C@H]([C@H](O)[C@H](O)CO)O6)[C@H](O)[C@H](O)[C@H]5O)[C@H](O)[C@H]4NC(C)=O)[C@@H](O)[C@H](O[C@H]4O[C@H](CO)[C@@H](O)[C@H](O)[C@@H]4O[C@@H]4O[C@H](CO)[C@@H](O[C@@H]5O[C@H](CO[C@]6(C(=O)O)C[C@H](O)[C@@H](NC(C)=O)[C@H]([C@H](O)[C@H](O)CO)O6)[C@H](O)[C@H](O)[C@H]5O)[C@H](O)[C@H]4NC(C)=O)[C@@H]3O)[C@H](O)[C@H]2NC(C)=O)[C@H](O)[C@H]1NC(C)=O)C(=O)O)C(=O)N[C@@H](CC(=O)N[C@@H]1O[C@H](CO)[C@@H](O[C@@H]2O[C@H](CO)[C@@H](O[C@@H]3O[C@H](CO[C@H]4O[C@H](CO)[C@@H](O)[C@H](O)[C@@H]4O[C@@H]4O[C@H](CO)[C@@H](O[C@@H]5O[C@H](CO[C@]6(C(=O)O)C[C@H](O)[C@@H](NC(C)=O)[C@H]([C@H](O)[C@H](O)CO)O6)[C@H](O)[C@H](O)[C@H]5O)[C@H](O)[C@H]4NC(C)=O)[C@@H](O)[C@H](O[C@H]4O[C@H](CO)[C@@H](O)[C@H](O)[C@@H]4O[C@@H]4O[C@H](CO)[C@@H](O[C@@H]5O[C@H](CO[C@]6(C(=O)O)C[C@H](O)[C@@H](NC(C)=O)[C@H]([C@H](O)[C@H](O)CO)O6)[C@H](O)[C@H](O)[C@H]5O)[C@H](O)[C@H]4NC(C)=O)[C@@H]3O)[C@H](O)[C@H]2NC(C)=O)[C@H](O)[C@H]1NC(C)=O)C(=O)O)C(=O)NCC(=O)N[C@@H](CCCNC(=N)N)C(N)=O)C(C)C [GL34CE2]	20	3.4
CC[C@H](C)[C@H](NC(=O)[C@H](Cc1ccccc1)NC(=O)[C@H](CCC(=O)O)NC(=O)[C@H](CCCCN)NC(=O)[C@H](C)NC(=O)[C@H](C)NC(=O)[C@H](CCC(N)=O)NC(=O)CNC(=O)[C@H](CCC(=O)O)NC(=O)[C@H](CC(C)C)NC(=O)[C@H](Cc1ccc(O)cc1)NC(=O)[C@H](CO)NC(=O)[C@H](CO)NC(=O)[C@@H](NC(=O)[C@H](CC(=O)O)NC(=O)[C@H](CO)NC(=O)[C@@H](NC(=O)[C@H](Cc1ccccc1)NC(=O)[C@@H](NC(=O)CNC(=O)[C@H](CCC(=O)O)NC(=O)[C@H](C)NC(=O)[C@@H](N)Cc1c[nH]cn1)[C@@H](C)O)[C@@H](C)O)C(C)C)C(=O)N[C@@H](C)C(=O)N[C@@H](Cc1c[nH]c2ccccc12)C(=O)N[C@@H](CC(C)C)C(=O)N[C@H](C(=O)N[C@@H](CC(=O)N[C@@H]1O[C@H](CO)[C@@H](O)[C@H](O)[C@H]1NC(C)=O)C(=O)NCC(=O)N[C@@H](CCCNC(=N)N)C(N)=O)C(C)C [GL34NG]	0.85	0.17
